Laboratory results as given in patent publication EP0072027A1, “Antiviral compounds” (THE WELLCOME FOUNDATION LIMITED, priority 1981, dated 1983).
In brackets after ≈: the same amount, converted by molar mass.

Tests used:
[1] = biological target: adenosine deaminase (Homo sapiens, UniProt P00813); details: Tetrahedron Letters, 21, 1980, 327-330; cited from earlier work
[2] = system: herpes simplex virus type 1; assay: Comparative in vivo activity against herpetic encephalitis in mice (Example 18); design: species or system CD.1 mice; details: for Mean reciprocal survival time: 100 mg/kg/dose twice daily for 4½ days, 300 LD50
Method: CD.1 mice weighing 16 - 20 gm were obtained from Charles River, Manston, Kent, U.K. The animals were housed in groups of approximately 10 and were given food and water ad lib.
The compounds namely acyclovir, 134U, 759U and 457U, were prepared as suspensions or solutions in sterile water at a concentration of 20 mg/ml prior to each experiment, and were stored at 4°C during the dosing period.
The ICI strain of herpes simplex virus type 1 was used for all experiments at a concentration of 300 LD50 (10^5 pfu)/ml). Dilutions from virus stocks ([…]) were prepared in PBS 'A'.
The test procedure is analoguous to that described in Example 13.
Three experiments were performed, in which three routes of compound administration were examined: i) subcutaneous, ii) oral and iii) intraperitoneal. […]

[3] = Solubility in water; type: physicochemical
Description: As mentioned above, the compounds of formula (I) have the important advantage of having a greater solubility in water than acyclovir. Thus, the compounds of formula (I) wherein X is an oxygen atom and R is a hydroxy group or amino group have solubilities of 0.4 -.0.5% and 2 - 3% w/w respectively compared with a figure of 0.14% w/w for acyclovir.

[4] = system: EHV-1 Pneumabort vaccine strain; assay: Comparative in vivo activity against equine rhinopneumonitis virus in hamsters, medicated drinking water (Example 15); design: species or system Syrian hamsters; details: for Cumulative mortality (out of 15) on day: water conc. 0.075 mg/ml, average intake 6.6-6.8 mg/kg/day
Method: 50 male WO/CR Syrian hamsters were caged randomly in 10 groups of 5, with water and food (seed mix) ad lib. Hamsters were weighed on Days -3, 0, 4, and/or- at death/sacrifice. Water consumption was recorded over Days -3 to 0 to 4.
EHV-1 Pneumabort vaccine strain stored as a 10^-1 dilution, was further diluted 10^-1 in PBS for infection. On Day 0, hamsters in Groups 1-9 received 0.2 ml virus inoculum s/c in the left flank equivalent to about 2 x 10^5 PFU (plaque-forming units).
457U and 759U were dissolved in drinking water at 0.075 mg/ml. Assuming an average daily intake of […], this would result in a daily dose of around 10 mg/kg. Medicated water was provided from approximately 5 hours pre-infection for 96 hours, as below
The drug intake was calculated from the weight of the animals and the water consumption recorded over the period of the experiment.

Sequence of adenosine deaminase (P00813 whole entry): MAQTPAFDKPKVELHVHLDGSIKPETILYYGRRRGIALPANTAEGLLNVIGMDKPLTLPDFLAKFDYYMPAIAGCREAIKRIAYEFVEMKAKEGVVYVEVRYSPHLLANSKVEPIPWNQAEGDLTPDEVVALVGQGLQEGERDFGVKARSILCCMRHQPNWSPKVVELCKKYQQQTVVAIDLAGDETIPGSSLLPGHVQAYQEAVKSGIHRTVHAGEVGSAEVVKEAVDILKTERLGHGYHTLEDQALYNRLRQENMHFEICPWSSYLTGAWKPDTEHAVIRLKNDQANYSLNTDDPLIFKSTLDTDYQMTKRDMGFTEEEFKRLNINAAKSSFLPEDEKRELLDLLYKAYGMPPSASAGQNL

SMILES	competitive inhibition of the enzyme [1]	substrate for the enzyme [1]	Mean reciprocal survival time ([2]; Oral)	Mean reciprocal survival time ([2]; i.p.)	Mean reciprocal survival time ([2]; s.c.)	solubility [3] [mg/mL]	deaths from virus-induced hepatitis ([4]; in 15 treated hamsters, 14 deaths in 15 untreated controls)	prevention of EHV-1 induced mortality ([4]; orally in drinking water, approximately 7 mg/kg/day)	Cumulative mortality (out of 15) on day ([4]; day 2)	Cumulative mortality (out of 15) on day ([4]; day 3)	Cumulative mortality (out of 15) on day ([4]; day 4+)	antiviral effect compared with acyclovir and 134U ([2]; any of the three routes, difference highly significant)
Nc1ncnc2c1ncn2COC(CO)CO	weak competitive inhibitor	poor substrate										
Nc1nc(N)c2ncn(COCCO)c2n1 [Example 134U, 2-amino-9-(2-hydroxy-methoxymethyl) adenine, reference compound]			0.222	0.231	0.226							
Nc1nc(N)c2ncn(COC(CO)CO)c2n1 [Example 457U, 9-[(2-hydroxy-1-hydroxymethylethoxy)methyl]-2,6-diaminopurine]			0.155	0.077	0.102	20 to 30 (≈ 78.7 to 118 mM)	1	almost completely prevented	0	1	1	greatest antiviral effect
